In patent US6750332B1, “Salicyl alcohol derivatives” (Cognis Deutschland GmbH & Co. KG, priority 1999, dated 2004):

Tests used:
[1] = tested on: prostaglandin synthesis in MSCP5 cells; assay: Inhibition of prostaglandin synthesis/release in keratinocytes (14C-arachidonic acid labelling); type: cell-based, mouse; details: 10 μm, incubated 2 hours
Method: Inhibition of Prostaglandin Synthesis by Salicin Derivatives (in Mouse or Human Skin Keratinocytes MSCP 5 or HPK II)
The cells were marked for 16 hours with 0.2 μCi ^14C-arachidonic acid ml^−1 medium. The test substances were added in fresh medium with increasing concentrations and incubated for 2 hours. In the Figure, the substances have the following meanings:
In the positive control NS398 (10 μm) for MSCP5 cells, prostaglandin synthesis is reduced by 85%. The prostaglandins were identified by comparison with reference substances and quantified by radiosensitometry. The result is expressed as the average value of three measurement points: MSCP 5: 100%=201 cpm; HPK II: 100%=63 cpm.

[2] = HLB value (ratio of hydrophilic to hydrophobic component); type: physicochemical
Description: The salicyl alcohol derivatives according to the invention have valuable biological activities such as, for example, anti-inflammatory, antipyretic, antiphlogistic or analgesic effects. Thus, prostaglandin synthesis is inhibited to a greater extent with the compounds according to the invention than, for example, with compounds known from the literature, such as salicin, which is associated with the greater lipophilia of the compounds according to the invention. The better effect is dependent inter alia on efficient absorption by the cell membranes of the keratinocytes. The lipid solubility of glycosidic compounds derives from the ratio of hydrophilic component to hydrophobic component which is described by the HLB value. Salicin which has an HLB value of about 12 is more of a water-soluble molecule whereas salicin esters with HLB values of, in some cases, well below 10 are more liposoluble molecules.

[3] = tested on: mouse MSCP 5 keratinocytes; assay: Cytotoxicity, MTT test in mouse skin keratinocytes; type: cell-based; details: concentrations showing inhibition of prostaglandin synthesis, incubation 1.5 or 20 h, confluent or subconfluent
Description: (§1) Cytotoxicity (in Mouse or Human Skin Keratinocytes, MSCP 5 or HPK II)
(§2) The toxicity of the substances was investigated by the MTT Test (Mosmann 1983) in cell cultures. This test is based on the conversion of the yellow tetrazolium salt MTT into the violet dye formazane. The reaction takes place only in living cells through the succinate dehydrogenase located in the inner mitochondrial membranes. On account of the potential use in cosmetic or pharmaceutical products, skin cells (human HPKII or mouse MSCP 5 keratinocytes) were used as the test system. […] The effect of the substances on the keratinocytes was independent of the time (incubation time 1.5 or 20 h), the growth state (confluent or subconfluent) and the organism (mouse or human).
(§3) The substances were dissolved in the culture medium and incubated with the cells for 20 h. The MTT reduction test was then carried out with fresh medium without test components.

[4] = tested on: human HPKII keratinocytes; assay: Cytotoxicity, MTT test in human skin keratinocytes; type: cell-based; details: for toxicity to the cells (MTT test): human HPKII keratinocytes, concentrations showing inhibition of prostaglandin synthesis, incubation 1.5 or 20 h, confluent or subconfluent; for influence on the vitality of skin cells (keratinocytes), FIG. 1: incubated 20 h in culture medium, then MTT reduction test, cell line not given
Description: as §1, §2, §3

[5] = tested on: COX-2-mRNA in MSCP 5 cells; assay: Northern Blot analysis of COX-2 mRNA in keratinocytes; type: cell-based, mouse; details: subconfluent MSCP 5 cells, 500 μM, 45 mins
Method: Influencing of the Transcription Activity of HPK II (Human Skin Keratinocytes)
The release of prostaglandins can be influenced by inhibitors at several levels. Besides inhibition of the catalytic activity of the prostaglandin synthase proteins, another possible effect is on the messenger RNA of the cyclooxygenases. […] As a negative control, the cells were incubated for 45 minutes in medium containing only the solubilizer acetone (0.25%) but no test substance for the same recorded RNA concentration.

Compound | reduction of prostaglandin synthesis [1] [%] | HLB value [2] | toxicity to the cells (MTT test) [3] | toxicity to the cells (MTT test) [4] | influence on the vitality of skin cells (keratinocytes), FIG. 1 [4] | COX-2-mRNA steady state concentration by comparison with untreated cells [5]
CS(=O)(=O)Nc1ccc([N+](=O)[O-])cc1OC1CCCCC1 [NS398] | 85 |  |  |  |  | 
OCc1ccccc1O[C@@H]1O[C@H](CO)[C@@H](O)[C@H](O)[C@H]1O [Salicin, [2-(hydroxymethyl)phenyl]-β-D-glucopyranoside] |  | about 12 |  |  |  | 
O=C(Cc1ccc(O)cc1)OC[C@H]1O[C@@H](Oc2ccccc2CO)[C@H](O)[C@@H](O)[C@@H]1O [p-OH-phenyl acetyl salicin, 6-O-p-OH-phenylacetyl-([2-hydroxymethyl)phenyl]-β-D-glucopyranoside] |  |  | non-toxic | non-toxic | minimal | greatly reduced
O=C(CCc1ccccc1)OC[C@H]1O[C@@H](Oc2ccccc2CO)[C@H](O)[C@@H](O)[C@@H]1O [phenylpropionyl salicin, 6-O-phenylpropionyl-[2-(hydroxymethyl)phenyl]-β-D-glucopyranoside] |  |  | non-toxic | non-toxic | minimal | 
